One assay addresses GSK3β (Homo sapiens, UniProt P49841). Nature of the assay: GSK3β ATP depletion assay. Format: biochemical. Conditions: ATP depletion assay; read-out: GSK3b IC50. The procedure, abridged: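 Human GSK3β (5 nM) preincubated 15 min with 10 μM biotinylated phospho-CREB peptide in pH 7.5 Tris buffer (15 mM MgCl2, 1 mM DTT, 0.1% BSA, 2.5% DMSO). Reaction started with 2 μM ATP and run to about 50% ATP depletion. Remaining ATP measured by KinaseGlo luminescence.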

A further assay deals with PIM1 (Homo sapiens, UniProt P11309). Nature of the assay: Pim 1 AlphaScreen assay (high ATP). Conditions: read-out: Pim1 IC50. Format: biochemical. The procedure, abridged:
(§1)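 This is a bead-based AlphaScreen run at high ATP (11-125× Km) with biotin-Bad peptide (100 nM in the substrate mix), in 50 mM Hepes pH 7.5, 5 mM MgCl2, 0.05% BSA, 0.01% Tween-20, 1 mM DTT and 2.5% DMSO final. After ~2 h the reaction was stopped with EDTA. Phospho-peptide was detected overnight with anti-phospho Ser/Thr antibody on Protein A and streptavidin beads, giving IC50.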

A further assay deals with PIM3 (Homo sapiens, UniProt Q86V86). Nature of the assay: Pim 3 AlphaScreen assay (high ATP). The class given is biochemical. As to conditions: read-out: Pim3 IC50. The procedure, abridged: as §1
A general note: Bead proximity is the source of the signal in Alpha formats.

Assay [1] relates to KMS11 (human myeloma cell line). Nature of the assay: Cell proliferation assay (CellTiter-Glo), KMS11. Conditions: Homo sapiens, KMS-11; KMS11 cells, cell proliferation; read-out: KMS11-Luc EC50. The class given is cell-based. The procedure, abridged:
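KMS11 cells in IMDM with 10% FBS and sodium pyruvate, seeded at 2000 cells/well on assay day. Compound added at 2× to equal volume of cells, incubated 3 days at 37° C. Viability read by CellTiter-Glo luminescence; EC50 derived.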
For orientation: Cellular ATP, detected with luciferase, serves as a proxy for viable cell number.

A further assay concerns the target PIM2 (Homo sapiens, UniProt Q9P1W9). Nature of the assay: Pim 2 AlphaScreen assay (high ATP). As to conditions: read-out: Pim2 IC50. The class given is biochemical. The procedure, abridged:
as §1

Chain of GSK3β (P49841 whole entry, species assumed): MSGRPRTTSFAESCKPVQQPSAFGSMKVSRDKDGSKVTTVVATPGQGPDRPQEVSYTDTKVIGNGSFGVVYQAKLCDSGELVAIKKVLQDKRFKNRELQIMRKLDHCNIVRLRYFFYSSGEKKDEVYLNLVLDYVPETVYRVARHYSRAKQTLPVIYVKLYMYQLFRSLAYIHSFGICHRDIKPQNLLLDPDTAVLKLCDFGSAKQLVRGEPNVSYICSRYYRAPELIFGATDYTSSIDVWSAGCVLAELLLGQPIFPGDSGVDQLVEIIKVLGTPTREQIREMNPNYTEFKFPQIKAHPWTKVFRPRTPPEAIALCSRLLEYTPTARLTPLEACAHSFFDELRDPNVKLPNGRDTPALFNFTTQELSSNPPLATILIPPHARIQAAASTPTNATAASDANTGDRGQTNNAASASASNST
Chain of PIM1 (P11309 whole entry): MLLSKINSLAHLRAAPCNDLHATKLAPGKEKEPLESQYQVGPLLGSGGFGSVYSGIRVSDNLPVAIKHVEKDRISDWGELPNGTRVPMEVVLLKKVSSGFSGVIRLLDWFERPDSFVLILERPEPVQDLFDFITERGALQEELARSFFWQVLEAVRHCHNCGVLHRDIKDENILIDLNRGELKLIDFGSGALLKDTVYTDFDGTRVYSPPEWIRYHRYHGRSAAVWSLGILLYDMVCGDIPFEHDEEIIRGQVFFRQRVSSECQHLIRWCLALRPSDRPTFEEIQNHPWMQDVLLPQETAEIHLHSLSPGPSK
Chain of PIM2 (Q9P1W9 whole entry): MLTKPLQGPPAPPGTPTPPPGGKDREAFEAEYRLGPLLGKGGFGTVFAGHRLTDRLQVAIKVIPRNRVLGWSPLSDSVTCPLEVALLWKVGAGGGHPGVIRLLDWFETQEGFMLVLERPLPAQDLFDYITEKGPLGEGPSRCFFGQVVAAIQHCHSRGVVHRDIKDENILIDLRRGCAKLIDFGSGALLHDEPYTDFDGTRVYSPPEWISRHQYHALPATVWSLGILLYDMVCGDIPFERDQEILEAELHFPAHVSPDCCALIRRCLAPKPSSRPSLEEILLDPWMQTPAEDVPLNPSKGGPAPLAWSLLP

In the case of `COc1cc(F)c(-c2nc(C(=O)Nc3cnccc3[C@@H]3C[C@H](N)[C@@H](O)[C@H](C4CC4)O3)ccc2F)c(F)c1` [Example 325, N-(4-((2S,4S,5R,6S)-4-amino-6-cyclopropyl-5-hydroxytetrahydro-2H-pyran-2-yl)pyridin-3-yl)-6-(2,6-difluoro-4-methoxyphenyl)-5-fluoropicolinamide], the 50% inhibitory concentration (IC50) was above 25000 nM at GSK3β, 4 nM on PIM1, 181 nM on PIM3 and 504 nM on PIM2. Besides, the concentration for a half-maximal effect (EC50) in assay [1] was found to be 5470 nM.

With `COc1cc(F)c(-c2nc(C(=O)Nc3cnccc3[C@H]3C[C@@H](N)[C@H](O)[C@@H](C4CC4)O3)ccc2F)c(F)c1` [Example 323, N-(4-((2R,4R,5S,6R)-4-amino-6-cyclopropyl-5-hydroxytetrahydro-2H-pyran-2-yl)pyridin-3-yl)-6-(2,6-difluoro-4-methoxyphenyl)-5-fluoropicolinamide], the IC50 amounted to 4200 nM on GSK3β, 0.3 nM at PIM1, 9.7 nM on PIM3 and 13.4 nM on PIM2. Besides, the EC50 in assay [1] came to 190 nM.

As for `Cc1cc(F)c(-c2nc(C(=O)Nc3cnccc3[C@@H]3C[C@H](N)[C@@H](O)[C@H](C4CC4)O3)ccc2F)c(F)c1` [Example 324, N-(4-((2S,4S,5R,6S)-4-amino-6-cyclopropyl-5-hydroxytetrahydro-2H-pyran-2-yl)pyridin-3-yl)-6-(2,6-difluoro-4-methylphenyl)-5-fluoropicolinamide], the IC50 was above 25000 nM on GSK3β, 3.4 nM at PIM1, 184 nM on PIM3 and 396 nM at PIM2. Further, the concentration for a half-maximal effect (EC50) in assay [1] worked out at 4320 nM.

Consider `C[C@H]1O[C@@H](c2ccncc2NC(=O)c2nn(Cc3ccccc3)cc2N)C[C@@H](O)[C@]1(C)O` [Example 218, 4-amino-1-benzyl-N-(4-((2R,4R,5S,6R)-4,5-dihydroxy-5,6-dimethyltetrahydro-2H-pyran-2-yl)pyridin-3-yl)-1H-pyrazole-3-carboxamide], for which the IC50 on GSK3β is 1290 nM; at PIM1, 12500 nM; on PIM3, above 25000 nM; at PIM2, above 25000 nM. For the same compound, in assay [1], the EC50 was above 10000 nM.

Turning to `C[C@H]1O[C@@H](c2ccncc2NC(=O)c2ccc(F)c(-c3ccc(S(C)(=O)=O)cc3)n2)C[C@@H](N)[C@]1(C)O` [Example 321, N-(4-((2R,4R,5S,6R)-4-amino-5-hydroxy-5,6-dimethyltetrahydro-2H-pyran-2-yl)pyridin-3-yl)-5-fluoro-6-(4-(methylsulfonyl)phenyl)picolinamide], the IC50 on GSK3β is 1880 nM; on PIM1, 4.7 nM; at PIM3, 783 nM; on PIM2, 1370 nM. In addition, in assay [1], the EC50 is above 10000 nM.

For `CC1(C)C[C@H](N)C[C@@H](c2ccncc2NC(=O)c2ccc(F)c(-c3c(F)cc(OCCO)cc3F)n2)O1` [Example 314, N-(4-((2S,4R)-4-amino-6,6-dimethyltetrahydro-2H-pyran-2-yl)pyridin-3-yl)-6-(2,6-difluoro-4-(2-hydroxyethoxy)phenyl)-5-fluoropicolinamide], the IC50 on GSK3β stood at 109 nM; on PIM1, 0.05 nM; on PIM3, 1.1 nM; on PIM2, 7.5 nM. For the same compound, the EC50 in assay [1] is 60 nM.

As to `Cc1cc(F)c(-c2nc(C(=O)Nc3cnccc3[C@@H]3C[C@@H](N)CC(C)(C)O3)ccc2F)c(F)c1` [Example 313, N-(4-((2S,4R)-4-amino-6,6-dimethyltetrahydro-2H-pyran-2-yl)pyridin-3-yl)-6-(2,6-difluoro-4-methylphenyl)-5-fluoropicolinamide], the 50% inhibitory concentration (IC50) was 128 nM at GSK3β, 0.06 nM on PIM1, 1.4 nM on PIM3 and 8.6 nM at PIM2. Moreover, the concentration for a half-maximal effect (EC50) in assay [1] stood at 360 nM.

As to `CC(C)[C@H]1OC(c2ccncc2NC(=O)c2ccc(F)c(-c3c(F)cc(OCCO)cc3F)n2)C[C@@H](N)[C@@H]1O` (stereo in doubt) [Example 319, N-(4-((2S,4R,5S,6R)-4-amino-5-hydroxy-6-isopropyltetrahydro-2H-pyran-2-yl)pyridin-3-yl)-6-(2,6-difluoro-4-(2-hydroxyethoxy)phenyl)-5-fluoropicolinamide], the concentration for half-maximal inhibition (IC50) amounted to 1570 nM at GSK3β, 0.07 nM on PIM1, 1.8 nM at PIM3 and 3.5 nM on PIM2. Further, the EC50 in assay [1] turned out to be 30 nM.

With `C[C@@H]1O[C@H](c2ccncc2NC(=O)c2ccc(F)c(-c3c(F)cccc3F)n2)C[C@H](N)[C@@]1(C)O` [Example 220, N-(4-((2S,4S,5R,6S)-4-amino-5-hydroxy-5,6-dimethyltetrahydro-2H-pyran-2-yl)pyridin-3-yl)-6-(2,6-difluorophenyl)-5-fluoropicolinamide], the IC50 was determined as 9140 nM at GSK3β, 2.09 nM at PIM1, 29.9 nM at PIM3 and 228 nM on PIM2. Also, the concentration giving a half-maximal response (EC50) in assay [1] amounted to 6210 nM.

For the compound `COCCOc1cc(F)c(-c2nc(C(=O)Nc3cnccc3C3C[C@@H](N)[C@H](O)[C@@H](C(C)C)O3)ccc2F)c(F)c1` (stereo in doubt) [Example 318, N-(4-((2S,4R,5S,6R)-4-amino-5-hydroxy-6-isopropyltetrahydro-2H-pyran-2-yl)pyridin-3-yl)-6-(2,6-difluoro-4-(2-methoxyethoxy)phenyl)-5-fluoropicolinamide], the half-inhibitory concentration (IC50) is 1160 nM at GSK3β, 0.05 nM on PIM1, 1.7 nM on PIM3 and 2.3 nM at PIM2. Also, the EC50 in assay [1] came out at 80 nM.

For `CSc1ccc(F)c(-c2nc(C(=O)Nc3cnccc3[C@H]3C[C@@H](N)[C@](C)(O)[C@@H](C)O3)ccc2F)c1F` [Example 327, N-(4-((2R,4R,5S,6R)-4-amino-5-hydroxy-5,6-dimethyltetrahydro-2H-pyran-2-yl)pyridin-3-yl)-6-(2,6-difluoro-3-(methylthio)phenyl)-5-fluoropicolinamide], the 50% inhibitory concentration (IC50) at GSK3β was determined as 640 nM; at PIM1 it was 0.07 nM; at PIM3, 2.6 nM; at PIM2, 18.8 nM. Also, the EC50 in assay [1] was 310 nM.

For the compound `COCCOc1cc(F)c(-c2nc(C(=O)Nc3cnccc3[C@@H]3C[C@@H](N)CC(C)(C)O3)ccc2F)c(F)c1` [Example 315, N-(4-((2S,4R)-4-amino-6,6-dimethyltetrahydro-2H-pyran-2-yl)pyridin-3-yl)-6-(2,6-difluoro-4-(2-methoxyethoxy)phenyl)-5-fluoropicolinamide], the IC50 was 121 nM at GSK3β, 0.07 nM at PIM1, 1.5 nM on PIM3 and 11.7 nM at PIM2. Besides, the 50% effective concentration (EC50) in assay [1] was 200 nM.

In the case of `Cc1cc(F)c(-c2nc(C(=O)Nc3cnccc3[C@H]3C[C@@H](N)[C@H](O)[C@@H](C4CC4)O3)ccc2F)c(F)c1` [Example 322, N-(4-((2R,4R,5S,6R)-4-amino-6-cyclopropyl-5-hydroxytetrahydro-2H-pyran-2-yl)pyridin-3-yl)-6-(2,6-difluoro-4-methylphenyl)-5-fluoropicolinamide], the concentration for half-maximal inhibition (IC50) at GSK3β came out at 5240 nM; on PIM1, 0.3 nM; at PIM3 it was 9 nM; on PIM2, 6.7 nM. Moreover, the 50% effective concentration (EC50) in assay [1] came out at 230 nM.

For the compound `CC(C)[C@H]1OC(c2ccncc2NC(=O)c2ccc(F)c(-c3c(F)ccc(C(=O)N(C)C)c3F)n2)C[C@@H](N)[C@@H]1O` (stereo in doubt) [Example 317, N-(4-((2S,4R,5S,6R)-4-amino-5-hydroxy-6-isopropyltetrahydro-2H-pyran-2-yl)pyridin-3-yl)-6-(3-(dimethylcarbamoyl)-2,6-difluorophenyl)-5-fluoropicolinamide], the IC50 was above 25000 nM on GSK3β, 1 nM on PIM1, 9.6 nM on PIM3 and 6.6 nM at PIM2. Moreover, the EC50 in assay [1] is 80 nM.

By IC50 is commonly meant the midpoint of a concentration-inhibition curve. Broadly, the EC50 is the concentration needed to bring the measured effect to its halfway point.
